Data: the supplement of paper PMC10307832

Columns and labels:
Experiment in all cases: relative viability (nuclei count vs DMSO), 5 days (fraction); higher = more cells survive
[1] = compound: NCC(=O)Nc1ccc(-n2nc(C(F)(F)F)cc2-c2ccc3c(ccc4ccccc43)c2)cc1 + N=C(N)NC(=N)NCCc1ccccc1 [Phenformin] (partner 250 µM)
How it was run: (§1)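 Lung cancer cell lines, seeded in 1536-well plates, were treated the following day by pin tool with a single drug or with five library-drug doses (not always all listed) in √10 steps on top of a fixed anchor-drug dose. Cells were fixed and nuclei stained in one step after 5 days, and nuclei were counted. Relative viability is the nuclei count for treated wells divided by that for vehicle wells, reported as medians of duplicate plates.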

[2] = compound: C1CSC2=C(C(=O)N1)SC3=C2C=C(C=C3)O [kb NB 142-70] + C[C@]1(O)C[C@@H](c2nc(-c3ccc4ccc(-c5ccccc5)nc4c3)c3c(N)nccn32)C1 [Linsitinib] (partner 1 µM)
How it was run: as §1

[3] = compound: C1CSC2=C(C(=O)N1)SC3=C2C=C(C=C3)O [kb NB 142-70] + CC(=O)Nc1cccc(-n2c(=O)n(C3CC3)c(=O)c3c(Nc4ccc(I)cc4F)n(C)c(=O)c(C)c32)c1 [Trametinib] (partner 0.02 µM)
How it was run: as §1

[4] = compound: NCC(=O)Nc1ccc(-n2nc(C(F)(F)F)cc2-c2ccc3c(ccc4ccccc43)c2)cc1 + Nc1nc2[nH]cc(CCc3ccc(C(=O)N[C@@H](CCC(=O)O)C(=O)O)cc3)c2c(=O)[nH]1 [Pemetrexed] (partner 0.2 µM)
How it was run: as §1

Cell Line | relative viability ([1]; first compound 0.02 µM) | relative viability ([1]; first compound 0.06325 µM) | relative viability ([1]; first compound 0.2 µM) | relative viability ([1]; first compound 0.6325 µM) | relative viability ([1]; first compound 2 µM) | relative viability ([2]; first compound 0.1 µM) | relative viability ([2]; first compound 1 µM) | relative viability ([2]; first compound 3.162 µM) | relative viability ([3]; first compound 0.1 µM) | relative viability ([3]; first compound 1 µM) | relative viability ([3]; first compound 3.162 µM) | relative viability ([4]; first compound 0.02 µM) | relative viability ([4]; first compound 0.06325 µM) | relative viability ([4]; first compound 0.2 µM) | relative viability ([4]; first compound 0.6325 µM) | relative viability ([4]; first compound 2 µM)
NCI-H2347 | 0.51 | 0.394 | 0.547 | 0.386 | 0.281 | 0.975 | 1.03 | 1.03 | 0.259 | 0.267 | 0.233 | 0.403 | 0.421 | 0.409 | 0.432 | 0.496
NCI-H1355 | 0.465 | 0.497 | 0.419 | 0.483 | 0.522 | 0.781 | 0.835 | 0.757 | 0.384 | 0.387 | 0.447 | 1.06 | 1.09 | 1.07 | 0.963 | 1.02
NCI-H358 | 0.335 | 0.319 | 0.293 | 0.365 | 0.343 | 0.654 | 0.522 | 0.146 | 0.117 | 0.103 | 0.105 | 0.168 | 0.164 | 0.179 | 0.193 | 0.185
PC-3 [JPC-3] | 0.497 | 0.486 | 0.439 | 0.485 | 0.492 | 0.971 | 0.98 | 0.881 | 0.685 | 0.726 | 0.643 | 1.2 | 1.24 | 1.08 | 1.2 | 1.18
NCI-H2228 | 0.432 | 0.484 | 0.352 | 0.266 | 0.31 | 0.525 | 0.872 | 0.629 | 0.696 | 0.497 | 0.235 | 0.375 | 0.354 | 0.377 | 0.358 | 0.398
HOP-62 | 0.683 | 0.7 | 0.644 | 0.608 | 0.735 | 0.996 | 0.906 | 0.945 | 0.401 | 0.427 | 0.545 | 0.334 | 0.29 | 0.3 | 0.275 | 0.314
HARA | 0.479 | 0.407 | 0.456 | 0.441 | 0.53 | 1.05 | 0.975 | 0.631 | 0.464 | 0.726 | 1.02 | 0.253 | 0.241 | 0.258 | 0.245 | 0.246
NCI-H838 | 0.51 | 0.661 | 0.634 | 0.548 | 0.497 | 0.993 | 1.08 | 0.98 | 0.546 | 0.525 | 0.532 | 0.259 | 0.25 | 0.253 | 0.232 | 0.284
NCI-H1755 | 0.582 | 0.587 | 0.577 | 0.606 | 0.607 | 1 | 0.991 | 1.06 | 0.814 | 0.742 | 0.836 | 0.69 | 0.509 | 0.453 | 0.394 | 0.434
HCC-78 | 0.758 | 0.691 | 0.713 | 0.649 | 0.714 | 0.491 | 0.569 | 0.467 | 0.683 | 0.823 | 0.838 | 0.977 | 0.894 | 0.884 | 0.903 | 0.89
NCI-H322M | 0.808 | 0.739 | 0.766 | 0.747 | 0.811 | 0.89 | 1.03 | 0.938 | 0.51 | 0.525 | 0.598 | 0.562 | 0.617 | 0.535 | 0.643 | 0.668
NCI-H3122 | 0.37 | 0.432 | 0.364 | 0.386 | 0.377 | 1.03 | 1.01 | 0.924 | 0.229 | 0.225 | 0.274 | 0.194 | 0.208 | 0.204 | 0.187 | 0.241
COR-L23 | 0.394 | 0.434 | 0.439 | 0.44 | 0.417 | 0.953 | 0.901 | 0.303 | 0.558 | 0.588 | 0.32 | 0.197 | 0.203 | 0.209 | 0.169 | 0.202
NCI-H2087 | 0.455 | 0.583 | 0.441 | 0.48 | 0.47 | 1.05 | 0.956 | 0.915 | 0.18 | 0.263 | 0.194 | 0.619 | 0.685 | 0.681 | 0.639 | 0.718
LC-2-ad | 0.531 | 0.643 | 0.609 | 0.614 | 0.649 | 0.791 | 0.825 | 0.677 | 0.898 | 0.937 | 0.875 | 0.28 | 0.265 | 0.292 | 0.307 | 0.281
NCI-H1915 | 0.367 | 0.364 | 0.371 | 0.349 | 0.369 | 1.11 | 1.11 | 0.716 | 0.332 | 0.331 | 0.37 | 0.452 | 0.503 | 0.477 | 0.575 | 0.467
NCI-H1793 | 0.258 | 0.376 | 0.412 | 0.392 | 0.422 | 0.832 | 1.08 | 0.905 | 0.399 | 0.542 | 0.463 | 0.907 | 1.01 | 0.827 | 0.949 | 0.891
NCI-H2023 | 0.414 | 0.441 | 0.403 | 0.454 | 0.412 | 0.698 | 0.673 | 0.396 | 0.52 | 0.559 | 0.566 | 0.226 | 0.249 | 0.256 | 0.224 | 0.239
COR-L 105 | 0.408 | 0.517 | 0.5 | 0.539 | 0.492 | 1.17 | 1 | 0.94 | 0.452 | 0.426 | 0.448 | 1.19 | 1.21 | 1.09 | 1.23 | 1.01
RERF-LC-KJ | 0.41 | 0.458 | 0.412 | 0.409 | 0.403 | 0.918 | 0.957 | 0.923 | 0.914 | 0.928 | 0.805 | 0.493 | 0.402 | 0.462 | 0.447 | 0.466
